According to patent US20230220331A1, “TEMPORARY TREATMENT MEDIUM, TREATMENT KIT, EMBRYOGENESIS ARREST INHIBITOR, EMBRYOGENESIS ARREST INHIBITORY METHOD, DEVELOPMENTAL ENGINEERING PRODUCT PREPARATION METHOD, TRANSPLANTATION METHOD, THERAPEUTIC METHOD, AND DEVELOPMENTAL ENGINEERING PRODUCT” (priority 2020, published 2023):

Assays:
[1] = system: Early embryos of the heterologous inbred SPR2 mouse; assay: ES cell establishment from electroporated early embryos (Treatment Example 4); assay type: cell-based, Mus spretus; conditions: SPR2 early embryos cultured in Y-27632 medium, then electroporated
Method: (§1) 1. Up to 3 hours before TAKE, Y-27632-added mWM medium (Y-27632 final concentration 10 μM, an example of the “temporary treatment medium” of this example), Y-27632-free mWM medium (an example of “normal medium” of this example) were dropped into 35 mm Petri dishes by 5 drops, respectively, to prepare drops covered with paraffin oil.
(§2) 2. Two-cell stage embryos were collected from the drops or thawed, placed in Y-27632-added mWM medium, and cultured for about 30 minutes to 1 hour (temporary treatment).
(§3) 3. After that, TAKE was performed.
(§4) 4. After TAKE, the embryos were placed in Y-27632-added mWM medium and cultured for about 30 minutes to 1 hour (temporary treatment). Then, the embryos were placed in Y-27632-free mWM medium and cultured at 37° C. under 5% CO2 and 5% O2 conditions until transplantation.
5. Then, if necessary, the culture was continued in the Y-27632-free mWM medium to establish ES cells.
When Mus caroli ES cells were knocked out of the Tyr gene by genome editing and a part of them was analyzed, it was shown that NHEJ occurred and heterologous mouse ES cells were established.

inbred rat F344 embryos = assay: Development to blastocyst after two electroporations (Treatment Example 5); assay type: cell-based; conditions: treated before and after electroporation
Method: 1. At least 3 hours before TAKE, 5 drops of Y-27632-added KSOM AA medium (Y-27632 final concentration 10 μM, an example of the “temporary treatment medium” of this example) were placed on a 35 mm Petri dish and drops covered with paraffin oil.
2. Pronuclear stage embryos were collected, placed in Y-27632-added KSOM AA medium, and cultured for about 30 minutes to 1 hour (temporary treatment).
3. After that, the first TAKE was performed.
4. After TAKE, the embryos were placed in Y-27632-added KSOM AA medium and cultured under 37° C., 5% CO2, and 5% O2 conditions for 30 minutes and more and up to 12 hours (temporary treatment).
5. Then, they were placed in Y-27632-free KSOM AA medium (an example of the “normal medium” of this example), and cultured under 37° C., 5% CO2, and 5% O2 conditions until the second TAKE.
6. The next day, the embryos that had become two cells were separated, and about 20 to 22 hours after egg collection, they were placed in Y-27632-added KSOM AA medium again and cultured for about 30 minutes to 1 hour (temporary treatment).
7. After that, the second TAKE was performed.
8. […]
In these figures, the development rate of the two-cell stage was calculated as the ratio of the two-cell stage embryo to the pronuclear stage embryo, and the development rate of the blastocyst stage was calculated as the ratio of the blastocyst stage to the two-cell stage embryo.

[2] = system: thawed 2-cell stage embryos of heterologous inbred SPR2 mouse; assay: Individuals by embryo transfer after freeze-thaw and electroporation (Treatment Example 5); assay type: cell-based, Mus spretus
Method: as §1, §2, §3, §4
Next, the effect of the temporary treatment medium of this example on the heterologous inbred SPR2 mouse, which cannot obtain the individual by embryo transfer after freeze-thaw and electroporation, was measured.
In the heterologous inbred SPR2 mouse, the thawed 2-cell stage embryos that were cultured in the temporary treatment medium of this example for the specific period before and after electroporation were used, […], and 7 individuals were able to be obtained. […]

[3] = system: Wistar-Imamichi and WKY rat embryos; assay: Klotho (40 kbp) large deletion knockout rats by electroporation (Treatment Example 13); assay type: cell-based; conditions: for large deletion (proportion of individuals) / large deletion (%): Klotho
Method: In the Wistar-Imamichi line, which are similar to the inbred line, and the inbred WKY line, when the Klotho gene (40 kbp), of which whole gene could not normally be deleted, were knocked out by electroporation, the temporarily treatment is processed as similar to Example 1 as described above. Specifically, before and after electroporation, 1 hour of temporary treatment, 24 hours of culture in the normal medium (waiting period), and 1 hour of temporary treatment were performed.

[4] = system: early embryos of immunodeficient mouse NOD-scid; assay: Genome editing efficiency of multiple targets (Treatment Example 19); assay type: cell-based; conditions: Bbox1, IL2RG, 4 target sites
Method: Electroporation (genome editing) of high-concentration RNA-protein mixed with CRISPR-Cas9 at multiple sites (4 sites in total) of a plurality of genes in early embryos of immunodeficient mice, which are extremely difficult to manipulate and prepare, was performed, transplanted into the recipient's uterus, and the offspring were obtained.

[5] = Wistar-Imamichi, HIGH CONCENTRATION
[6] = Wistar-Imamichi, 164 transferred embryos
[7] = Wistar-Imamichi, LOW CONCENTRATION

Compound: C[C@@H](N)[C@H]1CC[C@H](C(=O)Nc2ccncc2)CC1 [Y-27632, trans-4-[(1R)-1-Aminoethyl]-N-4-pyrid inylcyclohexanecarboxamide]
- ES cells established [1]: at a high rate
- 2-cell stage embryos developed until the blastocyst stage (proportion) (inbred rat F344 embryos): 74 of 103
- embryos developed to the blastocyst (%) (inbred rat F344 embryos; ratio of blastocysts to 2-cell embryos): 71.8%
- individuals obtained ([2]; SPR2 thawed 2-cell embryos, treated before and after electroporation, 17 2-cell embryos transplanted into the oviduct): 7
- individuals obtained ([2]; SPR2 thawed, electroporated, 16 blastocysts transplanted into the uterus 3.5 days after plug): 5
- large deletion (proportion of individuals) ([3]; WKY, high concentration, many pulses, 15 transferred embryos): 2/3
- large deletion (%) ([3]; WKY, high concentration, many pulses, listed as +Y): (66%)
- large deletion (%) ([3]; WKY, high concentration, many pulses, listed as Y): 66.6%
- KLOTHO LARGE DELETION HETERO % [3, 5]: 41.3%
- KLOTHO LARGE DELETION HOMO % [3, 5]: 23.2%
- NUMBER OF INDIVIDUALS, KLOTHO LARGE DELETION HETERO [3, 5]: 19/46
- NUMBER OF INDIVIDUALS, KLOTHO LARGE DELETION HOMO [3, 5]: 10/46
- large deletion (%) [3, 6]: (63%)
- large deletion (proportion of individuals) [3, 6]: 29/46
- KLOTHO LARGE DELETION HETERO % [3, 7]: 16.6%
- KLOTHO LARGE DELETION HOMO % [3, 7]: 0%
- NUMBER OF INDIVIDUALS, KLOTHO LARGE DELETION HETERO [3, 7]: 3/18
- NUMBER OF INDIVIDUALS, KLOTHO LARGE DELETION HOMO [3, 7]: 0/18
- KO % ([4]; 47 embryos transferred): 57%
- Pups ([4]; 47 embryos transferred): 7
- Pups (KO) ([4]; 47 embryos transferred): 4
- KO % ([4]; 49 embryos transferred): 100%
- Pups ([4]; 49 embryos transferred): 2 (2)
- Pups (KO) ([4]; 49 embryos transferred): 2 (2)
